Measured values taken from PMC8955307, “Nucleobase-Derived Nitrones: Synthesis and Antioxidant and Neuroprotective Activities in an In Vitro Model of Ischemia–Reperfusion” (International Journal of Molecular Sciences, 2022).
Where “and” joins values, the source holds several entries; their conditions need not be identical. Identical values can stand only once. Like-named read-outs stand apart in the source and are kept apart here.

Columns and labels:
[1] = system: SH-SY5Y human neuroblastoma cells; assay: Neuroprotection: cell viability (XTT metabolic activity) after OGD (4 h) followed by OGR (24 h) (IR); format: cell-based; conditions: OGD 4 h + OGR 24 h (IR); for Emax: 24 h, read-out: Maximal Activity mean±SEM (neuroprotection); for EC50: compounds 0.01 μM to 1 mM, read-out: Neuroprotection EC50 ± SEM
Protocol: Cultures of human neuroblastoma cells from line SH-SY5Y were performed in flasks containing Dulbecco’s: Ham’s F12, 1:1 [v/v] composed of 0.5 mM sodium pyruvate, 2.5 mM GlutaMAX™; GIBCO, Life Technologies, Madrid (Spain), 3.15 mg/mL glucose, 1% Antibiotic-Antimycotic (100 ui/mL penicillin, […] streptomycin, and 0.25 mg amphotericin B), 1% Gentamicin 15 mg/mL (Sigma-Aldrich, Madrid, Spain) and 10% Fetal Calf Serum (FCS) (Gibco; Life Technologies, Madrid, Spain) as as described. For each experiment, neuroblastoma cells were digested partially with 0.25% trypsin-EDTA and seeded in plates of 96 or 48 wells with a density of 0.5–1 or 2–2.5 × 10^5 cells/well, respectively, depending on the assay. At 80% confluence of the seeded cells, medium was renewed adding 0.1–1000 µM of the compounds tested.
(§1) To induce experimental ischemia, and the sub-consequent cellular damage, the neuroblastoma cultures underwent OGD for 3–4 h, maintained in a glucose-free Dulbecco’s medium inside an anaerobic chamber in the presence of a gas mixture of 95% N2/5% CO2 and humidified at 37 °C at a constant pressure of 0.15 bar. After the OGD period (4 h), medium was substituted by oxygenated 10% FCS-containing medium, and cells were incubated in conditions of normoxia for 24 h to recovery (R24h). The compounds used in the neuroprotection studies: nitrones 9a–i, α-phenyl-N-tert-butyl nitrone (PBN) and N-acetyl-L-cysteine (NAC) (0.01 μM−1000 µM), were added at the beginning of R24h as described. Concurrently, controls in the absence of the OGD procedure were performed by maintaining these cells with Dulbecco’s medium including glucose for 3–4 h in an incubator in conditions of normoxia during the OGD period; thereafter, the medium was changed, and the cells (in the presence or absence of the different study compounds) were returned to the incubator for 24 h of recovery, as described. In addition, experiments including the same amounts of vehicle (final concentration < 1% dimethyl sulfoxide) were performed, serving as controls. The effects of nitrones 9a–g were analyzed three-five times independently using different culture batches, and each experiment was carried out in triplicate.
(§2) Cell viability measurements were carried out in human neuroblastoma cells SHSY5Y using 96-well culture plates, containing about 0.5–1 × 10^5 cells/well, after the OGD-R24h or control treatment including 0.01–1000 µM of the different testing compounds (nitrones 9a–g, PBN, and NAC), utilizing the Cell Proliferation Kit II (XTT), Sigma Aldrich, Madrid, Spain, which determines the culture’s metabolic capacity, as described in [21, 22]. XTT solution (0.3 mg/mL final concentration) was added to the seeded cells, incubated for 2 h at 37 °C with 5% CO2 and 95% air (v/v), and a spectrophotometer reader (Biotek Power-Wave XS microplate-reader (BioTek Instruments, Madrid, Spain) was used to register the absorbance at 450 nm (reference 650 nm) of the soluble formazan product generated. 100% viability was set by control normoxic cells treated with medium only, and control cells were added 0.001–1% DMSO in every assay.

[2] = Reducing ability: interaction with DPPH; conditions: tested at 100 µM
[3] = system: SH-SY5Y human neuroblastoma cells; assay: Anti-necrotic effect: LDH release after OGD (4 h) and 24 h OGR (IR); format: cell-based; conditions: OGD 4 h + 24 h OGR (IR); for IC50: compounds 0.1 μM to 1 mM, read-out: LDH Release Inhibition IC50 ±SEM; for Emax: read-out: Maximal Inhibition Mean±SEM (LDH release)
Protocol: as §1
Anti-necrotic cell activity was evaluated by culturing SHSY5Y cells in 48-well dishes, in a density of 2 × 10^5 cells/well and treating them as controls or under the OGD-R24h procedure, adding the testing compounds at 0.01–1000 µM (see point 4.2.2.). Media of every well were collected in Eppendorf tubes properly labelled and stored at −20 °C until measurement (samples would be needed to measure extracellular NADH). Afterwards, each well was recharged with a 0.1 M Phosphate Buffer with 0.5% Triton X-100, pH 7.5, in order to scratch the cells from the bottom of the well. After a 13.000 rpm centrifugation, the soluble fractions are collected and labelled (samples would be essential to measure intracellular NADH). Finally, LDH activity was quantified as the degree of absorbance declined at 340, indicating the oxidation of NADH to NAD+ as described. Results are expressed as the LDH activity of the extracellular medium referred to the total LDH activity after cell lysis.

[4] = Inhibition of lipid peroxidation (ILPO), AAPH protocol with sodium linoleate; conditions: tested at 100 µM
Protocol: The reactants consisting of 10 µL (16 mM) sodium linoleate, 10 µL of the tested nitrones in DMSO (final concentration 100 µM), 50 µL of AAPH ([…]) as a free radical initiator, 930 µL phosphate buffer pH 7.4 (0.05 M) at 37 °C under air, were mixed and the reaction’s result (as absorbance value) was recorded at 234 nm in comparison to PBN as a reference.

[5] = system: human neuroblastoma SH-SY5Y cells; assay: Basal neurotoxicity: cell viability under basal conditions; format: cell-based
Protocol: as §2

Row | SMILES | Emax ([1]; Homo sapiens) [%] | EC50 ([1]; Homo sapiens) [µM] | DPPH (%) [2] [%] | IC50 ([3]; Homo sapiens) [µM] | Emax ([3]; Homo sapiens) [%] | ILPO (%) [4] [%] | melting point | Maximal Activity mean±SEM (neuroprotection) [1] | EC50 [1] | Neurotoxic effects at basal level (cell viability) [5] | Maximal Inhibition Mean±SEM (LDH release) [3] | IC50 [3]
1 | Cc1cn(C/C=[N+](/C)[O-])c(=O)[nH]c1=O [9b] | 123 ± 8.46 | 193 ± 36.7 | 11 | 23.2 ± 2.64 | 122 ± 1.84 | 55 | 182 °C (dec.) | – | – | – | – | –
2 | C/[N+]([O-])=C/Cn1cc(Br)c(=O)[nH]c1=O [9d] | 125 ± 8.05 | 29.2 ± 7.72 | 6 | 50.2 ± 8.87 | 120 ± 4.62 | – | 180 °C (dec.) | – | – | – | – | –
3 | C/[N+]([O-])=C/Cn1cc(Cl)c(=O)[nH]c1=O [9e] | 99.7 ± 5.98 | 165 ± 26.1 | 13 | 12 ± 1.71 | 98.6 ± 2.24 | 68 | 180 °C (dec.) | – | – | – | – | –
4 | C/[N+]([O-])=C/Cn1cnc2c(N)ncnc21 [9f] | – | 1.55 ± 0.15 | 9 | 3.93 ± 0.05 | 129 ± 2.26 | – | 211 °C (dec.) | – | – | – | – | –
5 | C/[N+]([O-])=C/Cn1cc(Br)c(=O)n(C/C=[N+](/C)[O-])c1=O [9i] | 110 ± 3.97 | 23.6 ± 4.17 | 76 | 43.1 ± 6.5 | 121 ± 5.82 | 71 | – | – | – | – | – | –
6 | CC(C)(C)[N+]([O-])=Cc1ccccc1 [PBN, α-phenyl-N-tert-butylnitrone, reference compound] | – | – | – | – | – | 11 | – | 96.93 ±6.97% and ≈ 96% | 33.5 µM and ~35 µM | did not show any neurotoxic effects | 77.51 ±5.75% and ≈ 75% | 5.28 µM and ~5 µM
